Publication PMC5803215, “Structural basis for amino acid transport by the CAT family of SLC7 transporters” (Nature Communications, 2018)
Substitutions are numbered along the chain they refer to.

How the values were obtained:
GkApcT-MgtS heterodimer [1] = biological target: T1, GkApcT-MgtS heterodimer (Geobacillus kaustophilus, UniProt A5A616+Q5L1G5); assay: thermal stability (circular dichroism); assay type: binding; conditions: pH 6.5
T1 construct: gene GK0930; heterodimer of G. kaustophilus GkApcT with host-derived E. coli MgtS (YneM); GFP-His tag cut with TEV; expressed in E. coli C43(DE3)
T1 sequence (Q5L1G5 1-471): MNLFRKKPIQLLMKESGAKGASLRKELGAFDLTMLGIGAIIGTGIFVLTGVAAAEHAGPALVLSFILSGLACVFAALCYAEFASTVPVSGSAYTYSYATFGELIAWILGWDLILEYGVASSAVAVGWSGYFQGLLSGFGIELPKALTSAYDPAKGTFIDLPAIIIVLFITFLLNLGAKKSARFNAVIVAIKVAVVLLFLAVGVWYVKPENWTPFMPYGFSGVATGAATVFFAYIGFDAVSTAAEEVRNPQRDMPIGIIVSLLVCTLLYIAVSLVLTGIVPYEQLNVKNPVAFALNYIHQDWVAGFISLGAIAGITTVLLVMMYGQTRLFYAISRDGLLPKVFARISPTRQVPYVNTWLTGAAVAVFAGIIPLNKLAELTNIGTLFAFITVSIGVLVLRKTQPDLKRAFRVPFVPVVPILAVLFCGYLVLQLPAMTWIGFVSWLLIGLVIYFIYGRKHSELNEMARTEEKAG
T1 sequence (A5A616 1-31): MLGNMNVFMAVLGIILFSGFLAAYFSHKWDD

GkApcT [2] = biological target: T2, GkApcT (Geobacillus kaustophilus, UniProt Q5L1G5, M321S); assay: electrogenic 3H-L-Ala uptake competition in proteoliposomes; assay type: biochemical
T2 construct: gene GK0930; cleavable GFP-His tag (pWaldo-GFP) removed with TEV; expressed in E. coli C43(DE3); co-purifies with E. coli MgtS; purified in DM/DDM, reconstituted in POPE:POPG liposomes
T2 sequence (Q5L1G5 1-471 M321S): T1 sequence (Q5L1G5 1-471) with M321S

GkApcT [3] = biological target: T3, GkApcT (Geobacillus kaustophilus, UniProt Q5L1G5); assay: as above; assay type: biochemical
T3 construct: gene GK0930; cleavable GFP-His tag (pWaldo-GFP) removed with TEV; expressed in E. coli C43(DE3); co-purifies with E. coli MgtS; purified in DM/DDM, reconstituted in POPE:POPG liposomes
T3 sequence (Q5L1G5 1-471): T1 sequence (Q5L1G5 1-471)

GkApcT [4] = biological target: T4, GkApcT (Geobacillus kaustophilus, UniProt Q5L1G5, E115Q); assay: thermal stability (nanoDSF); assay type: binding; conditions: 10 mM L-Ala; pH 6.0
T4 construct: gene GK0930; cleavable GFP-His tag (pWaldo-GFP) removed with TEV; expressed in E. coli C43(DE3); co-purifies with E. coli MgtS; purified in DM/DDM, reconstituted in POPE:POPG liposomes
T4 sequence (Q5L1G5 entry or part of it E115Q): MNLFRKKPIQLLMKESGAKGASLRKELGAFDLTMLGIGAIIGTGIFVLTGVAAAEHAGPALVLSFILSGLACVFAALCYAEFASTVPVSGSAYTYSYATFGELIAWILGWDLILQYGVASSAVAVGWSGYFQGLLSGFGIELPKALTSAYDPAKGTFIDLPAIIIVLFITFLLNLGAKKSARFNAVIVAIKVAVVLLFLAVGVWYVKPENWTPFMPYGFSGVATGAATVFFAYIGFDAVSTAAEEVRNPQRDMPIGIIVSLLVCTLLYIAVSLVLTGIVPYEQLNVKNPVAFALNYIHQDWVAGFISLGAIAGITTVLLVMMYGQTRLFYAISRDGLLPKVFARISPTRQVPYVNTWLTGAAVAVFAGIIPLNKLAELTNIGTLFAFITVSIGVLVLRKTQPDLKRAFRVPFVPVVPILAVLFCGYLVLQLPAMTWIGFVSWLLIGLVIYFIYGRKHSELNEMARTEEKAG

GkApcT [5] = biological target: T5, GkApcT (Geobacillus kaustophilus, UniProt Q5L1G5, K191N); assay: thermal stability (nanoDSF); assay type: binding; conditions: 10 mM L-Ala; pH 6.0
T5 construct: gene GK0930; cleavable GFP-His tag (pWaldo-GFP) removed with TEV; expressed in E. coli C43(DE3); co-purifies with E. coli MgtS; purified in DM/DDM, reconstituted in POPE:POPG liposomes
T5 sequence (Q5L1G5 entry or part of it K191N): as the sequence (Q5L1G5 entry or part of it E115Q) above, with Q115E, K191N counted along it

GkApcT [6] = biological target: T6, GkApcT (Geobacillus kaustophilus, UniProt Q5L1G5, K191R); assay: thermal stability (nanoDSF); assay type: binding; conditions: 10 mM L-Ala; pH 6.0
T6 construct: gene GK0930; cleavable GFP-His tag (pWaldo-GFP) removed with TEV; expressed in E. coli C43(DE3); co-purifies with E. coli MgtS; purified in DM/DDM, reconstituted in POPE:POPG liposomes
T6 sequence (Q5L1G5 entry or part of it K191R): as the sequence (Q5L1G5 entry or part of it E115Q) above, with Q115E, K191R counted along it

GkApcT [7] = biological target: T7, GkApcT (Geobacillus kaustophilus, UniProt Q5L1G5, R334E); assay: electrogenic 3H-L-Ala uptake competition in proteoliposomes; assay type: biochemical
T7 construct: gene GK0930; cleavable GFP-His tag (pWaldo-GFP) removed with TEV; expressed in E. coli C43(DE3); co-purifies with E. coli MgtS; purified in DM/DDM, reconstituted in POPE:POPG liposomes
T7 sequence (Q5L1G5 entry or part of it R334E): as the sequence (Q5L1G5 entry or part of it E115Q) above, with Q115E, R334E counted along it

GkApcT [8] = biological target: T3, GkApcT; assay: thermal stability (nanoDSF); assay type: binding; conditions: 10 mM L-Ala; pH 6.0
GkApcT [9] = biological target: T8, GkApcT (Geobacillus kaustophilus, UniProt Q5L1G5, K191A); assay: thermal stability (nanoDSF); assay type: binding; conditions: 10 mM L-Ala; pH 6.0
T8 construct: gene GK0930; cleavable GFP-His tag (pWaldo-GFP) removed with TEV; expressed in E. coli C43(DE3); co-purifies with E. coli MgtS; purified in DM/DDM, reconstituted in POPE:POPG liposomes
T8 sequence (Q5L1G5 entry or part of it K191A): as the sequence (Q5L1G5 entry or part of it E115Q) above, with Q115E, K191A counted along it

GkApcT-MgtS heterodimer [10] = biological target: T1, GkApcT-MgtS heterodimer; assay: X-ray crystal structure; assay type: binding; conditions: site between GkApcT TM5 and MgtS; cholesterol-doped monoolein LCP

CC(C)CCC[C@@H](C)[C@H]1CC[C@H]2[C@@H]3CC=C4C[C@@H](OC(=O)CCC(=O)O)CC[C@]4(C)[C@H]3CC[C@]12C [cholesterol hemisuccinate]
Tm with ligand (GkApcT-MgtS heterodimer [1]): 57 to 72 °C

N=C(N)NCCC[C@H](N)C(=O)O [L-arginine]
IC50 (GkApcT [2]): 11.4 µM
IC50 (GkApcT [3]): 6000 µM

C[C@H](N)C(=O)O [L-Alanine]
dTm (GkApcT [4]): Glu115Gln variant can still recognise alanine to the same extent as wild-type protein
dTm (GkApcT [5]): A similar stabilising effect was also observed in the Lys191Ala, Arg and Asn variants
dTm (GkApcT [6]): A similar stabilising effect was also observed in the Lys191Ala, Arg and Asn variants
IC50 (GkApcT [7]): 0.4 µM
Tm with ligand (GkApcT [8]): ~58 to ~69
dTm (GkApcT [9]): A similar stabilising effect was also observed in the Lys191Ala, Arg and Asn variants
IC50 (GkApcT [3]): 2 µM

CC(C)CCC[C@@H](C)[C@H]1CC[C@H]2[C@@H]3CC=C4C[C@@H](O)CC[C@]4(C)[C@H]3CC[C@]12C [cholesterol]
X-ray crystal structure (GkApcT-MgtS heterodimer [10]): we observed density for a cholesterol molecule in this pocket
